# In patent publication US20250041298A1, “CDK4 INHIBITOR FOR THE TREATMENT OF CANCER” (Pfizer Inc., priority 2021, published 2025):
# “And” between values parts separate entries of the source, which are not always exact repeats. Identical values can stand only once.
# Legend:
# [1] = system: HR+, HER2- T47D breast cancer spheroids; assay: Multicellular tumor spheroid growth inhibition (SGI), T47D; assay type: cell-based, human
# Experimental: The purpose of this example was to evaluate the combination effect of PF-07220060 and endocrine therapy in multicellular tumor spheroid growth inhibition (SGI). To model the characteristics and cellular behavior of human tumors, the activity of PF-07220060 was evaluated in three dimensional MCTS models of HR+ breast cancer and AR+ prostate cancer following PF-07220060 treatment as a single agent and in combination with fulvestrant • 1) in HR+, HER2-T47D breast cancer spheroids. • 2) in HR+, HER2+BT474 breast cancer spheroids, • 3) in BT474 spheroids, and • 4) in AR+ prostate carcinoma cell line (LNCaP) prostate cancer spheroids. Spheroids were treated with increasing concentrations of 100, 300, or 1000 nM PF-07220060 and compared to palbociclib at the clinically relevant concentration of 30 nM. Single agent PF-07220060 inhibited spheroid growth in a dose-dependent manner, with highest efficacy (86% SGI over the duration of treatment with 1000 nM) shown in the T47D BC spheroid model (Table 1). Combining 100 nM PF-07220060 with 1 nM fulvestrant in T47D cells increased SGI to 96% compared to either single agent alone (57 to 67% SGI with 100 nM PF-07220060 or 79% SGI with fulvestrant) (Table 1). BT474 spheroids were relatively less sensitive to PF-07220060 resulting in 52% SGI at 1000 nM.
# [2] = Phase 1/1b clinical trial: safety (DLTs, treatment-emergent adverse events); assay type: in vivo, human
# Experimental: As used herein, “dose limiting toxicity” (DLT) refers to the dosage of PF-07220060 that is contraindicative of a further increase in dosage.
# An ongoing open-label, nonrandomized, dose-finding Phase 1/1b Study investigating the safety, tolerability, PK, and PD of PF-07220060 administered as a single agent and when administered in combination with endocrine therapy.
# Adverse events of the patients dosed with PF-07220060 in the Phase 1/1b clinical trial were evaluated using the National Cancer Institute Common Terminology Criteria for Adverse Events (NCI CTCAE) version 4.03.
# [3] = 66 participants dosed in Part 1A, 1B, 1C and 1D
# [4] = Part 1D, single agent 400 mg BID food cohort
# [5] = Part 1D, single agent 400 mg BID food cohort, 6 participants
# [6] = across all dose levels, by label
# [7] = across all dose levels, Part 1A
# [8] = any grade, all dose levels, Part 1A, 1B, 1C, by label
# [9] = any grade, all dose levels, Part 1A, 1C, by label
# [10] = overall, 66 participants dosed in Part 1
structure (smiles),measurement,setting,value
"CC(C)n1c(C(C)(C)O)nc2c(F)cc(-c3nc(N[C@@H]4CCOC[C@H]4O)ncc3Cl)cc21 [PF-07220060, 1,5-anhydro-3-({5-chloro-4-[4-fluoro-2-(2-hydroxypropan-2-yl)-1-(propan-2-yl)-1H-benzimidazol-6-yl]pyrimidin-2-yl}amino)-2,3-dideoxy-D-threo-pentitol]",SGI,[1]; 100 nM single agent,57% and 67%
same,SGI,[1]; 300 nM single agent,74%
same,SGI,[1]; 1000 nM single agent,86%
same,"participants with any treatment-related TEAE, %",[2]; 66 participants dosed in Part 1,81.8%
same,number of all-causality TEAEs,[2]; [3],375
same,"participants with all-causality TEAEs, %",[2]; [3],89.4%
same,"diarrhoea, Grade 3 treatment-related TEAE",[2]; Part 1A,5.9%
same,"thrombocytopenia, Grade 3 treatment-related TEAE",[2]; Part 1A,5.9%
same,"participants with treatment-related TEAE, %","[2]; Part 1A (single agent, 34), 1B (13), 1C (13), by label",79.4%
same,participants with Grade 5 all-causality TEAE (respiratory failure; unrelated to study drug),"[2]; Part 1A, 400 mg BID group",One
same,Grade 4 / Grade 5 all-causality TEAEs,"[2]; Part 1A, 1B, 1C, by label",No Grade 4 TEAEs were reported
same,Grade 4 / Grade 5 treatment-related TEAEs,"[2]; Part 1A, 1B, 1C, by label",no Grade 4 or Grade 5 treatment-related TEAEs reported
same,"anaemia, Grade 3 treatment-related TEAE","[2]; Part 1A, 1B, 1C, by label",5.9%
same,"leukopenia, Grade 3 treatment-related TEAE","[2]; Part 1A, 1B, 1C, by label",5.9%
same,"neutropenia, Grade 3 treatment-related TEAE","[2]; Part 1A, 1B, 1C, by label",14.7%
same,"participants with Grade 3 treatment-related TEAEs, %","[2]; Part 1A, 1B, 1C, by label",26.5%
same,"Grade 3, 4 or 5 treatment-related TEAEs",[2]; [4],"No Grade 3, 4 nor 5 treatment-related TEAEs were reported"
same,Grade 3 or 5 TEAEs,[2]; [4],No Grade 3 or 5 TEAEs were reported
same,"diarrhoea, all-causality TEAE",[2]; [4],50.0%
same,"diarrhoea, treatment-related TEAE",[2]; [4],50.0%
same,"leukopenia, all-causality TEAE",[2]; [4],50.0%
same,"leukopenia, treatment-related TEAE",[2]; [4],50.0%
same,"neutropenia, all-causality TEAE",[2]; [4],50.0%
same,"neutropenia, treatment-related TEAE",[2]; [4],50.0%
same,participants with Grade 4 all-causality TEAE (respiratory failure),[2]; [4],One
same,"participants with TEAEs, %",[2]; [5],66.7%
same,"participants with treatment-related TEAEs, %",[2]; [5],66.7%
same,"anaemia, Grade 3 or higher (1A) / Grade 3 (1B, 1C) all-causality TEAE",[2]; [6],5.9%
same,"leukopenia, Grade 3 or higher (1A) / Grade 3 (1B, 1C) all-causality TEAE",[2]; [6],5.9%
same,"neutropenia, Grade 3 or higher (1A) / Grade 3 (1B, 1C) all-causality TEAE",[2]; [6],14.7%
same,number of Grade 3 or higher (Part 1A) / Grade 3 (Part 1C) all-causality TEAEs,[2]; [6],15
same,"COVID-19, Grade 3 or higher all-causality TEAE",[2]; [7],5.9%
same,"aspartate aminotransferase increased, Grade 3 or higher all-causality TEAE",[2]; [7],5.9%
same,"diarrhoea, Grade 3 or higher all-causality TEAE",[2]; [7],5.9%
same,"syncope, Grade 3 or higher all-causality TEAE",[2]; [7],5.9%
same,"thrombocytopenia, Grade 3 or higher all-causality TEAE",[2]; [7],5.9%
same,"participants with all-causality TEAEs, %","[2]; all dose levels, Part 1A (single agent, 34), 1B (13), 1C (13), by label",94.1%
same,"aspartate aminotransferase increased, all-causality TEAE","[2]; any grade, all dose levels, Part 1A",20.6%
same,"anaemia, all-causality TEAE",[2]; [8],35.3%
same,"diarrhoea, all-causality TEAE",[2]; [8],35.3%
same,"diarrhoea, treatment-related TEAE",[2]; [8],23.5%
same,"fatigue, treatment-related TEAE",[2]; [8],11.8%
same,"leukopenia, all-causality TEAE",[2]; [8],35.3%
same,"nausea, all-causality TEAE",[2]; [8],29.4%
same,"nausea, treatment-related TEAE",[2]; [8],26.5%
same,"neutropenia, all-causality TEAE",[2]; [8],41.2%
same,"neutropenia, treatment-related TEAE",[2]; [8],41.2%
same,"vomiting, all-causality TEAE",[2]; [8],20.6%
same,"anaemia, treatment-related TEAE",[2]; [9],29.4%
same,"leukopenia, treatment-related TEAE",[2]; [9],29.4%
same,"thrombocytopenia, treatment-related TEAE",[2]; [9],20.6%
same,"vomiting, treatment-related TEAE",[2]; [9],14.7%
same,"participants who experienced DLTs, %","[2]; of the 55 evaluable participants, all cohorts, as of Sep. 2, 2022",7.3%
same,"anemia, treatment-related TEAE",[2]; [10],21.2%
same,"diarrhea, treatment-related TEAE",[2]; [10],33.3%
same,"leukopenia, treatment-related TEAE",[2]; [10],30.3%
same,"nausea, treatment-related TEAE",[2]; [10],27.3%
same,"neutropenia, treatment-related TEAE",[2]; [10],40.9%
same,participants with DLT of Grade 3 neutropenia,[2]; single agent 200 mg BID cohort,One
same,participants with DLT of Grade 3 thrombocytopenia,[2]; single agent 500 mg BID cohort,Two
